Experiments:
Test in all cases: Competitive isoTOP-ABPP, cell lysates;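 as to isoTOP-ABPP reactivity profile ratio, Q15084 C190: Heavy/light ratio DMSO over fragment-treated so higher means more cysteine engagement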;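 as to isoTOP-ABPP reactivity profile ratio, Q99873 C109: Heavy/light ratio DMSO over fragment-treated so higher means more cysteine engagement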
Type in all cases: binding
[1] = molecular target: SMARCC2 C145 (Q8TAQ2) (Homo sapiens, UniProt Q8TAQ2); conditions: 500 μm
[2] = molecular target: PRMT1 C109 (Q99873) (Homo sapiens, UniProt Q99873); conditions: for isoTOP-ABPP reactivity profile ratio, Q99873_C109: 500 μm;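 as to isoTOP-ABPP reactivity profile ratio, Q99873 C109: Heavy/light ratio DMSO over fragment-treated so higher means more cysteine engagement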
[3] = molecular target: T1, UBE2S C118 (Q16763) (Homo sapiens, UniProt Q16763); conditions: 500 μm
T1 sequence (Q16763 1-222): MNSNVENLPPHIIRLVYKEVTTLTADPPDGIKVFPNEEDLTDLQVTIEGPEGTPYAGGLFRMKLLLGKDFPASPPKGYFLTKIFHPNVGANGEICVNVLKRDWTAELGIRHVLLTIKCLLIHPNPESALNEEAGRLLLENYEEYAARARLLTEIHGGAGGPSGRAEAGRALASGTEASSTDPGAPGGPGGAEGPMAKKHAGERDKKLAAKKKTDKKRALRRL

[4] = molecular target: T2, ACAT1 C119 (P24752) (Homo sapiens, UniProt P24752); conditions: 500 μm
T2 sequence (P24752 34-427): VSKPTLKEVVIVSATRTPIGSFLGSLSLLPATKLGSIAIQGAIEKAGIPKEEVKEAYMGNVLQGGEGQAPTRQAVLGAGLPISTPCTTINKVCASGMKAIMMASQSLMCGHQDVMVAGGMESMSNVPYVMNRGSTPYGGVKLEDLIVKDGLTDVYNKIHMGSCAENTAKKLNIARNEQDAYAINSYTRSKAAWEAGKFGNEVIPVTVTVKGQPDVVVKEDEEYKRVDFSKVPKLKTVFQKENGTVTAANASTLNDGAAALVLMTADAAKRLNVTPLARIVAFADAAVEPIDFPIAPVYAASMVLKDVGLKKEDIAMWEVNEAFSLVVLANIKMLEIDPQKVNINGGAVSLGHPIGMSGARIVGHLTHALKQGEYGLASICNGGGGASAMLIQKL

[5] = molecular target: T3, ACAT1 C413 (P24752) (Homo sapiens, UniProt P24752); conditions: 500 μm
T3 sequence (P24752 34-427): T2 sequence (P24752 34-427)

[6] = molecular target: T4, PDIA6 C190 (Q15084) (Homo sapiens, UniProt Q15084); conditions: 500 μm;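 also: Heavy/light ratio DMSO over fragment-treated so higher means more cysteine engagement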
T4 sequence (Q15084 20-440): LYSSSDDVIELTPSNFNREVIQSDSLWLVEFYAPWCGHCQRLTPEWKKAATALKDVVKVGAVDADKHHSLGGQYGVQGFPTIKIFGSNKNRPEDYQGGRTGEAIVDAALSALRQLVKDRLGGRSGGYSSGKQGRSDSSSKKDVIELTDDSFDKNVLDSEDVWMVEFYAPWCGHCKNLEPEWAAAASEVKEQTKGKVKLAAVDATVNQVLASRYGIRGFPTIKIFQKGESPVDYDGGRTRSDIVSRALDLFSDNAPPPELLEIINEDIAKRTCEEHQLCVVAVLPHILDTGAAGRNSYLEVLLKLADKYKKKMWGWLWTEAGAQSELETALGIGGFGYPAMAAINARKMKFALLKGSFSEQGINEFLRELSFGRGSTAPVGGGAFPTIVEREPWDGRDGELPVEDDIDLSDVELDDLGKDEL

Sequence of PRMT1 C109 (Q99873) (Q99873 whole entry, the tested form may be a part): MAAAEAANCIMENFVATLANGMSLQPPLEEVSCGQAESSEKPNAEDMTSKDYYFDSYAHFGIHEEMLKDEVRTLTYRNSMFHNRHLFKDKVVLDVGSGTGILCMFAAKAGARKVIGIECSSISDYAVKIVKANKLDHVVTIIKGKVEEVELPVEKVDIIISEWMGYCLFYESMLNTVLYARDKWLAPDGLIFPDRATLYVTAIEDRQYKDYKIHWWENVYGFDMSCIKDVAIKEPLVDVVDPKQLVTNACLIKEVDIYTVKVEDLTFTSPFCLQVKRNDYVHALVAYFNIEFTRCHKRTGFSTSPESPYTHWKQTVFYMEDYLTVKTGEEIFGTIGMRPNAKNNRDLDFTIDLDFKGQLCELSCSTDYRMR
Sequence of SMARCC2 C145 (Q8TAQ2) (Q8TAQ2 whole entry, the tested form may be a part): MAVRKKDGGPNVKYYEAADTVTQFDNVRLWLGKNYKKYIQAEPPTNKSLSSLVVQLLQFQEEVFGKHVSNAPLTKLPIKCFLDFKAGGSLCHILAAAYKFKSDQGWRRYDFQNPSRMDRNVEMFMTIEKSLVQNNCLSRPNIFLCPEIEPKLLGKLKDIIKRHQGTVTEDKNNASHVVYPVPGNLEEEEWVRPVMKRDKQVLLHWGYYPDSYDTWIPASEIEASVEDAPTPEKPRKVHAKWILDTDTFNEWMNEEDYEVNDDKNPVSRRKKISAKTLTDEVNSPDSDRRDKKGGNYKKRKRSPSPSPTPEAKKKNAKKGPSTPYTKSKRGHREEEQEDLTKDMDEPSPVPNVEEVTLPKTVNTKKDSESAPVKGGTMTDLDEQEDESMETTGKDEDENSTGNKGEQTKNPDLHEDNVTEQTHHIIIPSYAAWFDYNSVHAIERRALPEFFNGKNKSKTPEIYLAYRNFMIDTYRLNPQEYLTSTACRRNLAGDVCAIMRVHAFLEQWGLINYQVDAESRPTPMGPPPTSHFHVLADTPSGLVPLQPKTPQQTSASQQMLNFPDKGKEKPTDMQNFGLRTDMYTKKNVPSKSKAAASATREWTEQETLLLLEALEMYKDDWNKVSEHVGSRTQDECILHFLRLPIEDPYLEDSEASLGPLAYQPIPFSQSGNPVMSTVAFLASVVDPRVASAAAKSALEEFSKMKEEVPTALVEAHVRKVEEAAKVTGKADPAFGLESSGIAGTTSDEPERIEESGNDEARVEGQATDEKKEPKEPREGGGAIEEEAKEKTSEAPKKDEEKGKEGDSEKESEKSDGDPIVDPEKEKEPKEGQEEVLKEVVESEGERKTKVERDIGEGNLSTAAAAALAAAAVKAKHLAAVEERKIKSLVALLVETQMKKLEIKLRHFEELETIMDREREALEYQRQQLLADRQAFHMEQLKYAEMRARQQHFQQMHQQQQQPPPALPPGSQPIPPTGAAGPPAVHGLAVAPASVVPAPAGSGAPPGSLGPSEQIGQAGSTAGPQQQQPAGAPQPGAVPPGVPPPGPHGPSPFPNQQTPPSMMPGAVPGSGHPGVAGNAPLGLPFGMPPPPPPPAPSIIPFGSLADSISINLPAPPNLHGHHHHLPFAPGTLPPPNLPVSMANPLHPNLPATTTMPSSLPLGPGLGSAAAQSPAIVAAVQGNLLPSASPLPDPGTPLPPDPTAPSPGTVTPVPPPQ

Compound	isoTOP-ABPP reactivity profile ratio, Q8TAQ2_C145 ([1]; in-vitro_ramos)	isoTOP-ABPP reactivity profile ratio, Q99873_C109 ([2]; in-vitro_ramos)	isoTOP-ABPP reactivity profile ratio, Q16763_C118 ([3]; in-vitro_ramos)	isoTOP-ABPP reactivity profile ratio, P24752_C119 ([4]; in-vitro_ramos)	isoTOP-ABPP reactivity profile ratio, P24752_C413 ([5]; in-vitro_ramos)	isoTOP-ABPP reactivity profile ratio, Q8TAQ2_C145 ([1]; in-vitro_ramos_231)	isoTOP-ABPP reactivity profile ratio, Q99873_C109 ([2]; in-vitro_ramos_231)	isoTOP-ABPP reactivity profile ratio, Q15084_C190 ([6]; in-vitro_ramos_231)	isoTOP-ABPP reactivity profile ratio, P24752_C119 ([4]; in-vitro_ramos_231)	isoTOP-ABPP reactivity profile ratio, P24752_C413 ([5]; in-vitro_ramos_231)	isoTOP-ABPP reactivity profile ratio, Q16763_C118 ([3]; in-vitro_ramos_231)	blockade of IA-alkyne labeling of C109 of PRMT1 ([2]; competitive isoTOP-ABPP)	isoTOP-ABPP reactivity profile ratio, Q15084_C190 ([6]; in-vitro_ramos)
N#CC(=Cc1ccc(-c2ccccc2Cl)o1)C(N)=O [compound 42]	1.0	0.9	0.8	0.8	0.7	–	–	–	–	–	–	–	–
COc1cc(NC(=O)CCl)cc(OC)c1 [compound 43]	–	1.2	1.0	1.1	–	20.0	1.4	20.0	1.8	15.9	–	–	–
CC1CCc2ccccc2N1C(=O)CCl (stereo not shown) [compound 45]	–	–	–	–	–	–	2.2	–	12.4	20.0	–	–	–
O=C(CCl)N1CCc2cc(Br)ccc21 [compound 50]	–	–	–	–	–	2.8	1.0	–	2.1	9.2	0.8	–	–
O=C(CCl)Nc1cccc2ncccc12 [compound 51]	1.1	9.5	0.9	0.9	1.0	–	0.9	–	0.8	1.0	–	blocking IA-alkyne labeling	5.6

Reference: US10670605B2, “Cysteine reactive probes and uses thereof” (The Scripps Research Institute, priority 2015, dated 2020)
